Test results: patent publication US9115101B2 (Genentech, Inc., priority 2012, dated 2015)
Where two headings read alike, the source gives them in different places.

Target: T1, RORc ligand binding domain (Homo sapiens, UniProt P51449)
T1 construct: host or cells: E. coli
T1 sequence (P51449 269-508 limits assumed): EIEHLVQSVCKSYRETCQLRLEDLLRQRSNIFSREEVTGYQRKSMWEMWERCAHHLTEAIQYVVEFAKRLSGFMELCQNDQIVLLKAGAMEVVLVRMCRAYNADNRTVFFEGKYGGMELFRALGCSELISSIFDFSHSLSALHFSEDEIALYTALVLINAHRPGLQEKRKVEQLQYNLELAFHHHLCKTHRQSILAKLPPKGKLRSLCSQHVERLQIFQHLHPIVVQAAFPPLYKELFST
Assay: In Vitro RORc Ligand Binding Assay (25-[3H]hydroxycholesterol radioligand filtration)
Settings: read-out: RORc IC50

[1] = In Vitro RORc Ligand Binding Assay, Table 4

IC50 [1] [nM]	IC50 [nM]	Structure (SMILES)
8	–	CC(=O)N1CCN(c2ccc(CN3[C@@H](C)CCC(c4ccccc4)S3(=O)=O)c(F)c2)C[C@@H]1C (stereo partly drawn) [Example 238, 1-{4-[3-Fluoro-4-((3S)-methyl-1,1-dioxo-6-phenyl-[1,2]thiazinan-2-ylmethyl)-phenyl]-2-methyl-piperazin-1-yl}-ethanone]
15	–	C[C@H]1CCC(c2ccccc2)S(=O)(=O)N1Cc1ccc(N2CCC(C#N)CC2)cc1F (single isomer, unassigned) [Example 86]
–	852	C[C@H]1CCC(c2ccccc2)S(=O)(=O)N1Cc1ccc(OC2CCC(=O)NC2)cc1 (stereo partly drawn) [Example 449, 5-[4-((3S)-Methyl-1,1-dioxo-6-phenyl-[1,2]thiazinan-2-ylmethyl)-phenoxy]-piperidin-2-one]
29	–	O=C(CO)N1CCN(c2ccc(CN3CCCCC(c4ccccc4)S3(=O)=O)c(F)c2)CC1 (single isomer, unassigned) [Example 308, 1-{4-[4-(1,1-Dioxo-7-phenyl-[1,2]thiazepan-2-ylmethyl)-3-fluoro-phenyl]-piperazin-1-yl}-2-hydroxy-ethanone]
54	–	C[C@H]1CCC(c2ccccc2)S(=O)(=O)N1Cc1ccc(N2CC3(CCOC3)C2)cc1F (single isomer, unassigned) [Example 94]
5460	–	C[C@H]1CCC(c2ccccc2)S(=O)(=O)N1Cc1ccc(C(=O)NC2CN(C(N)=O)C2)cc1 (stereo partly drawn) [Example 390, 3-[4-((3S)-Methyl-1,1-dioxo-6-phenyl-[1,2]thiazinan-2-ylmethyl)-benzoylamino]-azetidine-1-carboxylic acid amide]
24	–	N#CCC(=O)N1CCN(c2ccc(CN3CCCCC(c4ccccc4)S3(=O)=O)c(F)c2)CC1 (single isomer, unassigned) [Example 302, 3-{4-[4-(1,1-Dioxo-7-phenyl-[1,2]thiazepan-2-ylmethyl)-3-fluoro-phenyl]-piperazin-1-yl}-3-oxo-propionitrile]
11	–	CC(=O)N1CCN(c2ccc(CN3C4CCCC4CC(c4ccccc4)S3(=O)=O)c(F)c2)CC1 (single isomer, unassigned) [Example 250, 1-(4-(4-((2,2-dioxido-3-phenylhexahydro-cyclopenta[c][1,2]thiazin-1(3H)-yl)methyl)-3-fluorophenyl)piper-azin-1-yl)ethanone]
34	–	C[C@H]1CCC(c2ccccc2)S(=O)(=O)N1Cc1ccc(N2CCC(S(=O)(=O)N(C)C)CC2)cc1F (single isomer, unassigned) [Example 109]
3630	–	C[C@H]1CCC(c2ccccc2)S(=O)(=O)N1Cc1ccc(C(=O)NCCC2CCCN(S(C)(=O)=O)C2)cc1 (stereo partly drawn) [Example 371, N-[2-(1-Methanesulfonyl-piperidin-3-yl)-ethyl]-4-((3S)-methyl-1,1-dioxo-6-phenyl-[1,2]thiazinan-2-ylmethyl)-benzamide]
1350	–	C[C@H]1CCC(c2ccccc2)S(=O)(=O)N1Cc1ccc(C(=O)N2CCc3cn[nH]c3C2)cc1 (stereo partly drawn) [Example 365, [4-((3S)-Methyl-1,1-dioxo-6-phenyl-[1,2]thiazinan-2-ylmethyl)-phenyl]-(1,4,5,7-tetrahydro-pyrazolo[3,4-c]pyridin-6-yl)-methanone]
166	–	Cc1ncc2n1CCN(c1ccc(CN3[C@@H](C)CCC(c4ccccc4)S3(=O)=O)c(F)c1)C2 (stereo partly drawn) [Example 374, 7-[3-Fluoro-4-((3S)-methyl-1,1-dioxo-6-phenyl-[1,2]thiazinan-2-ylmethyl)-phenyl]-3-methyl-5,6,7,8-tetrahydro-imidazo[1,5-a]pyrazine]
299	–	CC(=O)N1CCN(c2ccc(CN3[C@H](C)CCC(c4ccccc4)S3(=O)=O)cc2)CC1 (single isomer, unassigned) [Example 47]
1430	–	C[C@H]1CCC(c2ccccc2)S(=O)(=O)N1Cc1ccc(C(=O)N2CCCC(O)CC2)cc1 (stereo partly drawn) [Example 284, (4-Hydroxy-azepan-1-yl)-[4-((3S)-methyl-1,1-dioxo-6-phenyl-[1,2]thiazinan-2-ylmethyl)-phenyl]-methanone]
44	–	CC(=O)N1CCN(c2ccc(CN3C4CC(C4)CC(c4ccccc4)S3(=O)=O)c(F)c2)CC1 (single isomer, unassigned) [Example 300, 1-{4-[4-(3,3-Dioxo-4-phenyl-3-thia-2-aza-bicyclo[4.1.1]oct-2-ylmethyl)-3-fluoro-phenyl]-piperazin-1-yl}-ethanone]
16	–	CC(=O)N1CCN(c2ccc(CN3[C@@H](C)CCC(c4ccccc4)S3(=O)=O)c(F)c2)CC1 (single isomer, unassigned) [Example 17]
5	–	CS(=O)(=O)N1CCC(Nc2ccc(CN3CCCCC(c4ccccc4)S3(=O)=O)c(F)c2)CC1 (single isomer, unassigned) [Example 347, [4-(1,1-Dioxo-7-phenyl-[1,2]thiazepan-2-ylmethyl)-3-fluoro-phenyl]-(1-methanesulfonyl-piperidin-4-yl)-amine]
4	–	C[C@H]1CCC(c2ccccc2)S(=O)(=O)N1Cc1ccc(N2CCC(c3cn[nH]c3)CC2)cc1F (single isomer, unassigned) [Example 242]
85	–	C[C@H]1CCC(c2ccccc2)S(=O)(=O)N1Cc1ccc(N[C@H]2C[C@@H](n3cnnc3)C2)cc1F (stereo partly drawn) [Example 241, [3-Fluoro-4-((3S)-methyl-1,1-dioxo-6-phenyl-[1,2]thiazinan-2-ylmethyl)-phenyl]-(3-[1,2,4]triazol-4-yl-cyclobutyl)-amine]

IC50 [1] [nM]	IC50 [nM]	Structure (SMILES)
–	268	C[C@H]1CCC(c2ccccc2)S(=O)(=O)N1Cc1ccc(OC2CCOC2)cc1 (stereo partly drawn) [Example 447, (3S)-Methyl-6-phenyl-2-[4-(tetrahydro-furan-3-yloxy)-benzyl]-[1,2]thiazinane 1,1-dioxide]
1810	–	CC(=O)N1CCN(c2ccc(CN3[C@@H](C)CCC(c4ccccc4C#N)S3(=O)=O)c(F)c2)CC1 (single isomer, unassigned) [Example 207]
108	–	C[C@H]1CCC(c2ccccc2)S(=O)(=O)N1Cc1ccc(C(=O)N2CCCC2CCNS(C)(=O)=O)cc1 (stereo partly drawn) [Example 357, N-(2-{1-[4-((3S)-Methyl-1,1-dioxo-6-phenyl-[1,2]thiazinan-2-ylmethyl)-benzoyl]-pyrrolidin-2-yl}-ethyl)-methanesulfonamide]
4	–	C[C@H]1CCC(c2ccccc2)S(=O)(=O)N1Cc1ccc(N2CCC(n3ccnn3)CC2)cc1F (single isomer, unassigned) [Example 256]
3170	–	C[C@H]1CCC(c2ccccc2)S(=O)(=O)N1Cc1ccc(C(=O)N2CC3(CCCOC3)C2)cc1 (stereo partly drawn) [Example 356, [4-((3S)-Methyl-1,1-dioxo-6-phenyl-[1,2]thiazinan-2-ylmethyl)-phenyl]-(6-oxa-2-aza-spiro[3.5]non-2-yl)-methanone]
15	–	CC(=O)N1CCN(c2ccc(CN3CC(C)CCC(c4ccccc4)S3(=O)=O)c(F)c2)CC1 (single isomer, unassigned) [Example 339, 1-{4-[3-Fluoro-4-(4-methyl-1,1-dioxo-7-phenyl-[1,2]thiazepan-2-ylmethyl)-phenyl]-piperazin-1-yl}-ethanone]
1490	–	C[C@H]1CCC(c2ccccc2)S(=O)(=O)N1Cc1ccc(C(=O)NC2CCS(=O)(=O)CC2)cc1 (stereo partly drawn) [Example 386, N-(1,1-Dioxo-hexahydro-1-thiopyran-4-yl)-4-((3S)-methyl-1,1-dioxo-6-phenyl-[1,2]thiazinan-2-ylmethyl)-benzamide]
29	–	C[C@H](O)C(=O)N1CCN(c2ccc(CN3[C@@H](C)CCC(c4ccccc4)S3(=O)=O)c(F)c2)CC1 (single isomer, unassigned) [Example 78]
23	–	C[C@H]1CCC(c2ccccc2)S(=O)(=O)N1Cc1ccc(N2CC3(CCOCC3)C2)cc1F (single isomer, unassigned) [Example 84]
3250	–	C[C@H]1CCC(c2ccccc2)S(=O)(=O)N1Cc1ccc(N2CCN3C(=O)CNC(=O)[C@H]3C2)cc1F (stereo partly drawn) [Example 396, (R)-8-[3-Fluoro-4-((3S)-methyl-1,1-dioxo-6-phenyl-[1,2]thiazinan-2-ylmethyl)-phenyl]-hexahydro-pyrazino[1,2-a]pyrazine-1,4-dione]
66	–	C[C@@H]1CC(c2ccccc2)S(=O)(=O)N(Cc2ccc(N3CCC(n4cnnc4)CC3)cc2F)C1 (stereo partly drawn) [Example 265, 2-[2-Fluoro-4-(4-[1,2,4]triazol-4-yl-piperidin-1-yl)-benzyl]-(4R)-methyl-6-phenyl-[1,2]thiazinane 1,1-dioxide]
2690	–	C[C@H]1CCC(c2ccccc2)S(=O)(=O)N1Cc1ccc(C(=O)N2CC(c3cc[nH]n3)C2)cc1 (stereo partly drawn) [Example 297, [4-((3S)-Methyl-1,1-dioxo-6-phenyl-[1,2]thiazinan-2-ylmethyl)-phenyl]-[3-(1H-pyrazol-3-yl)-azetidin-1-yl]-methanone]
14	–	CC(=O)N1CCN(c2ccc(CN3[C@@H](C)CCC(c4ccccc4C)S3(=O)=O)c(F)c2)CC1 (single isomer, unassigned) [Example 206]
–	1130	CC(=O)N1CCN(c2ccc(CN3[C@@H](C)CCC(c4ccccc4)S3(=O)=O)c(F)c2)[C@@H](C(=O)O)C1 (stereo partly drawn) [Example 434, (R)-4-Acetyl-1-[3-fluoro-4-((3S)-methyl-1,1-dioxo-6-phenyl-[1,2]thiazinan-2-ylmethyl)-phenyl]-piperazine-2-carboxylic acid]
133	–	COc1ccc(C2CC[C@H](C)N(Cc3ccc(N4CCN(C(C)=O)CC4)cc3F)S2(=O)=O)cc1 (single isomer, unassigned) [Example 176]
73	–	CC[C@H]1CCC(c2ccccc2)S(=O)(=O)N1Cc1ccc(N2CCN(C(C)=O)CC2)cc1F (single isomer, unassigned) [Example 195]
89	–	C[C@H]1CCC(c2ccccc2)S(=O)(=O)N1Cc1ccc(N2CC3(CCOCC3)C2)cc1F (single isomer, unassigned) [Example 85]
1780	–	CON(C)C(=O)C1CCN(c2ccc(CN3[C@@H](C)CCC(c4ccccc4)S3(=O)=O)c(F)c2)CC1 (single isomer, unassigned) [Example 147]
